Test results taken from patent US20180028520A1, “METHODS AND PHARMACEUTICAL COMPOSITIONS FOR TREATMENT OF AMYOTROPHIC LATERAL SCLEROSIS” (priority 2014, published 2018).

Assays:
[1] = tested on: brain slices derived from a mouse model of tauopathy; conditions: inhibition of PLDs; cited from earlier work
[2] = tested on: ALS iPS-MNs; assay: AIS (axon initial segment) length by ankyrin G immunostaining; assay type: cell-based, human; conditions: data not shown

| SMILES | effect on insoluble tau aggregates [1] | effect on shortening of the AIS [2] |
| --- | --- | --- |
| O=C(NCCN1CCC(n2c(=O)[nH]c3ccccc32)CC1)c1cc2cc(F)ccc2[nH]1 [FIPI, 5-fluoro-2-indolyl des-chlorohalopemide] | increased insoluble tau aggregates | – |
| C=C(C)[C@H]1CN[C@H](C(=O)O)[C@H]1CC(=O)O [kainate, kainic acid] | – | further exacerbated |
